Assay results from patent US10793547B2, “Modulator of the cystic fibrosis transmembrane conductance regulator, pharmaceutical compositions, methods of treatment, and process for making the modulator” (Vertex Pharmaceuticals Incorporated, priority 2016, dated 2020).

Tests used:
[1] = target: T1, F508del-CFTR (Homo sapiens, UniProt P13569, DEL508-508); assay: Membrane potential optical (FLIPR) assay for F508del-CFTR modulators in NIH 3T3 cells; assay type: cell-based; conditions: NIH 3T3 cells expressing F508del; assay A1; read-out: CFTRdF508 Cor 3T3 FLIPR 384 CFTRdF508 MP 3T3 770 EC50
T1 construct: expressed in transfected cells
Description: Membrane Potential Optical Methods for Assaying Properties of F508del-CFTR Modulators
The assay utilizes fluorescent voltage sensing dyes to measure changes in membrane potential using a fluorescent plate reader (e.g., FLIPR III, Molecular Devices, Inc.) as a readout for increase in functional F508del in NIH 3T3 cells. The driving force for the response is the creation of a chloride ion gradient in conjunction with channel activation and concurrent with compound treatment by a single liquid addition step after the cells have previously been loaded with a voltage sensing dye.
A1. Identification of F508del-CFTR Modulators
To identify modulators of F508del, a fluorescence based HTS assay format was developed. This HTS assay utilizes fluorescent voltage sensing dyes to measure changes in membrane potential on the FLIPR III as a measurement for increase in gating (conductance) of F508del NIH 3T3 cells. The driving force for the response is the creation of a chloride ion gradient in conjunction with channel activation and concurrent with compound treatment by a single liquid addition step after the cells have previously been loaded with a voltage sensing dye.
Bath Solution #1: (in mM) NaCl 160, KCl 4.5, CaCl2 2, MgCl2 1, HEPES 10, pH 7.4 with NaOH, Glucose 10.
Chloride-free bath solution: Chloride salts in Bath Solution #1 (above) are substituted with gluconate salts.
NIH3T3 mouse fibroblasts stably expressing F508del were used for optical measurements of membrane potential. The cells were maintained at 37° C. in 5% CO2 and 90% humidity in Dulbecco's modified Eagle's medium supplemented with 2 mM glutamine, 10% fetal bovine serum, 1×NEAA, β-ME, 1× pen/strep, and 25 mM HEPES in 175 cm^2 culture flasks. For all optical assays, the cells were seeded at 12,000 cells/well in 384-well matrigel-coated plates and cultured for 18-24 hrs at 37° C. for the potentiator assay. For the correction assay, the cells were cultured at 37° C. with and without compounds for 18-24 hours.

[2] = MDCK-Wild Type permeability, 96 well + 0.1% BSA; assay type: in vitro ADME; conditions: dog, MDCK, A-B direction, read-out: MDCK-Wild Type-Permeability 96 well + 0.1% BSA Papp compound (A-B)
[3] = target: T2, human PXR (Homo sapiens, UniProt O75469); assay: PXR assay: PXR mediated CYP3A4 induction in DPX-2 cell line; assay type: cell-based; conditions: DPX-2 cells
T2 construct: host or cells: DPX-2 cell line (derived from HepG2)
T2 sequence (O75469 1-434): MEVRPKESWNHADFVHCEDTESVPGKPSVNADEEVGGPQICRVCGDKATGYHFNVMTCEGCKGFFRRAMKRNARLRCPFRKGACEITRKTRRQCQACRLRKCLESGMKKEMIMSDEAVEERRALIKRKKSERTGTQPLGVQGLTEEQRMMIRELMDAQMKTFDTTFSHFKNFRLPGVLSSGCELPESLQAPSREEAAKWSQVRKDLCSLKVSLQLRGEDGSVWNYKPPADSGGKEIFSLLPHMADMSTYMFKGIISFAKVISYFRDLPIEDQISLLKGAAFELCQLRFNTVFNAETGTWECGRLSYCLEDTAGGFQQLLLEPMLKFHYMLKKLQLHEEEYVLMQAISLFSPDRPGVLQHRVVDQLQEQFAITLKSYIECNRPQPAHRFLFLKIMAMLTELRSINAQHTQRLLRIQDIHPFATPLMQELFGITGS
Description: D. Experimental Protocol for PXR Assay
The propensity for PXR mediated CYP3A4 induction is assessed using the DPX-2 cell line in vitro. This cell line, which has been licensed from Puracyp Inc. was derived from HepG2 cells and has been stably transfected with genes encoding human PXR as well as a modified luciferase reporter linked to the CYP3A4 promoter region and related distal and proximal enhancers.
The assay is run in 384 well format and each test article is administered in 11 doses ranging from 0.1 to 60 μM. On day 1, DPX-2 cells which have previously been expanded in-house and cryopreserved are thawed and seeded in tissue culture plates. The following day, media is changed and cells are cultured in media containing test article, vehicle control or the positive control compound, the clinically validated CYP3A4 inducer rifampicin. Cells are cultured in the presence of test article for 48 hours and then cell viability is assessed using fluorescence based assay (Cell Titer-Fluor, Promega) with an EnVision Plate Reader (PerkinElmer). Subsequently, CYP3A4 transactivation, which is proportional to luciferase activity, is measured by reading luminescense using the Promega One-Glo reagent system using the same plate reader.
Data processing within the Genedata software package allows reporting of max fold induction compared to vehicle control, an EC50 value for CYP3A4 inducers and an 11 point-dose response curve.

[4] = test system: Rat hepatocytes; assay: Hepatocyte clearance, rat hepatocytes; assay type: in vitro ADME; conditions: percent unchanged

T1 sequence (P13569 with tags, fused parts or gaps DEL508-508): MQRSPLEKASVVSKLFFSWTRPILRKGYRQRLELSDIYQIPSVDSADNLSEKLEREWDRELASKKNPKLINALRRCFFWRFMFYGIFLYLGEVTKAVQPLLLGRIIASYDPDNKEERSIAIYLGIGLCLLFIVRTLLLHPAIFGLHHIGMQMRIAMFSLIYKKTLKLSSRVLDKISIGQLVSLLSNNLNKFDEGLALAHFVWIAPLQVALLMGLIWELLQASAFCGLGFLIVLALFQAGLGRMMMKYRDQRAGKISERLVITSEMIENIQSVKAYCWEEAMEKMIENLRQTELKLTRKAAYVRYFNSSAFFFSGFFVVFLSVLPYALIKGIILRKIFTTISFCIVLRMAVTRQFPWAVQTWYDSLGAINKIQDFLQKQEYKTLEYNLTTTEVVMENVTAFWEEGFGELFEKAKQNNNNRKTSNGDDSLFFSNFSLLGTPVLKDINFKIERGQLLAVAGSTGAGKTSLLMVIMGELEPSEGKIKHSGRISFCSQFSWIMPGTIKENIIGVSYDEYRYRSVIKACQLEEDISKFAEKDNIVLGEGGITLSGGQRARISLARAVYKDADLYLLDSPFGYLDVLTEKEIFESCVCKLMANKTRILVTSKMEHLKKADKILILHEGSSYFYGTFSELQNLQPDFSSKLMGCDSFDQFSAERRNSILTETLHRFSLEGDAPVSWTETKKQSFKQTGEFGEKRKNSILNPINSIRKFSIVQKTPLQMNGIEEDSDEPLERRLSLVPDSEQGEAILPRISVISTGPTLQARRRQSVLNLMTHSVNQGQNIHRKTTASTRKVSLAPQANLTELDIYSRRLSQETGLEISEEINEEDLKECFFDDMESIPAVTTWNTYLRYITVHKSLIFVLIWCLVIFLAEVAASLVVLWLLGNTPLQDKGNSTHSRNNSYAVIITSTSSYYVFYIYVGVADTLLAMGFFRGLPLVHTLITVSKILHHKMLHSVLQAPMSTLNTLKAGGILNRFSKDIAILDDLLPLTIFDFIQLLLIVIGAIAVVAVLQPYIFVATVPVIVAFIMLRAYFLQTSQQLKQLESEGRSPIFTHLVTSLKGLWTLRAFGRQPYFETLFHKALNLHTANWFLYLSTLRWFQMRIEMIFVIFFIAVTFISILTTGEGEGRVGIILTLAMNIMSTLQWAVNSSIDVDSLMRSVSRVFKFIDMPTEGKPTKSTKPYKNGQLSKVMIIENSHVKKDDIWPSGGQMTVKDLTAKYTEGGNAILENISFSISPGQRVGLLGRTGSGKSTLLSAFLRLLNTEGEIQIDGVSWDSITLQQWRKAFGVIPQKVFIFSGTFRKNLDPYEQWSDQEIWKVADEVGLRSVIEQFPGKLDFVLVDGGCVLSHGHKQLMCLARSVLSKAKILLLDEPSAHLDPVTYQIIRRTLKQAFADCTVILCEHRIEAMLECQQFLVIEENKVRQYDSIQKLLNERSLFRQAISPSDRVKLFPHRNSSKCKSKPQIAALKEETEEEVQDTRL

Row | SMILES | EC50 [1] | Papp A→B [2] | CYP3A4 Induction-PXR human PXR internal Max % Activity [3] | Hepatocyte clearance-Rat Rat hepatocytes CL pct_unchanged [4]
1 | Cc1nn(C)cc1S(=O)(=O)NC(=O)c1ccc(-n2ccc(OCC(C)(C)C(F)(F)F)n2)nc1N1C[C@H](C)CC1(C)C [Compound 37, N-(1,3-Dimethylpyrazol-4-yl)sulfonyl-6-[3-(3,3,3-trifluoro-2,2-dimethyl-propoxy)pyrazol-1-yl]-2-[(4R)-2,2,4-trimethylpyrrolidin-1-yl]pyridine-3-carboxamide] | 290 nM | 5.1 ×10⁻⁶ cm/s | 7% | 
2 | C[C@@H]1CN(c2nc(-n3ccc(OCC4(C(F)(F)F)CC4)n3)ccc2C(=O)NS(=O)(=O)c2cnn(C)c2)C(C)(C)C1 [Compound 6, N-(1-methylpyrazol-4-yl)sulfonyl-6-[3-[[1-(trifluoromethyl)cyclopropyl]methoxy]pyrazol-1-yl]-2-[(4S)-2,2,4-trimethylpyrrolidin-1-yl]pyridine-3-carboxamide] | 300 nM | 2.1 ×10⁻⁶ cm/s | 0.9% | 53%
3 | Cc1nn(C)c(C)c1S(=O)(=O)NC(=O)c1ccc(-n2ccc(OCC(C)(C)C(F)(F)F)n2)nc1N1C[C@@H](C)CC1(C)C [Compound 17, 6-[3-(3,3,3-trifluoro-2,2-dimethyl-propoxy)pyrazol-1-yl]-N-(1,3,5-trimethylpyrazol-4-yl)sulfonyl-2-[(4S)-2,2,4-trimethylpyrrolidin-1-yl]pyridine-3-carboxamide] | 170 nM | 3.8 ×10⁻⁶ cm/s | 3% | 19%
4 | Cc1nn(C)c(C)c1S(=O)(=O)NC(=O)c1ccc(-n2ccc(OCCC3(C(F)(F)F)CC3)n2)nc1N1C[C@@H](C)CC1(C)C [Compound 18, 6-[3-[2-[1-(trifluoromethyl)cyclopropyl]ethoxy]pyrazol-1-yl]-N-(1,3,5-trimethylpyrazol-4-yl)sulfonyl-2-[(4S)-2,2,4-trimethylpyrrolidin-1-yl]pyridine-3-carboxamide] | 170 nM | 8 ×10⁻⁶ cm/s | 5% | 0%
5 | C[C@@H]1CN(c2nc(-n3ccc(OCC(C)(C)C)n3)ccc2C(=O)NS(=O)(=O)c2ccc[nH]c2=O)C(C)(C)C1 [B, reference compound] | 260 nM | 0.4 ×10⁻⁶ cm/s | 3% | 13%
6 | Cc1nn(C)cc1S(=O)(=O)NC(=O)c1ccc(-n2ccc(OCC(C3CC3)C3CC3)n2)nc1N1C[C@@H](C)CC1(C)C [Compound 32, 6-[3-(2,2-dicyclopropylethoxy)pyrazol-1-yl]-N-(1,3-dimethylpyrazol-4-yl)sulfonyl-2-[(4S)-2,2,4-trimethylpyrrolidin-1-yl]pyridine-3-carboxamide] | 200 nM | 3.8 ×10⁻⁶ cm/s | 5% | 
7 | C[C@@H]1CN(c2nc(-n3ccc(OCC4(C(F)(F)F)CC4)n3)ccc2C(=O)NS(=O)(=O)c2cn[nH]c2)C(C)(C)C1 [Compound 5, N-(1H-pyrazol-4-ylsulfonyl)-6-[3-[[1-(trifluoromethyl)cyclopropyl]methoxy]pyrazol-1-yl]-2-[(4S)-2,2,4-trimethylpyrrolidin-1-yl]pyridine-3-carboxamide] | 1300 nM | 0.3 ×10⁻⁶ cm/s | 0% | 33%
8 | Cc1nn(C)cc1S(=O)(=O)NC(=O)c1ccc(-n2ccc(OC(C3CC3)C3CC3)n2)nc1N1C[C@@H](C)CC1(C)C [Compound 48, 6-[3-(Dicyclopropylmethoxy)pyrazol-1-yl]-N-(1,3-dimethylpyrazol-4-yl)sulfonyl-2-[(4S)-2,2,4-trimethylpyrrolidin-1-yl]pyridine-3-carboxamide] | 1000 nM | 4.6 ×10⁻⁶ cm/s | 8% | 
9 | Cc1c(S(=O)(=O)NC(=O)c2ccc(-n3ccc(OCC4CC45CC5)n3)nc2N2C[C@@H](C)CC2(C)C)cnn1C (stereo partly drawn) [Compound 26, N-(1,5-dimethylpyrazol-4-yl)sulfonyl-6-[3-(spiro[2.2]pentan-2-ylmethoxy)pyrazol-1-yl]-2-[(4S)-2,2,4-trimethylpyrrolidin-1-yl]pyridine-3-carboxamide] | 1000 nM | 2.3 ×10⁻⁶ cm/s | 6% | 
10 | Cc1nn(C)cc1S(=O)(=O)NC(=O)c1ccc(-n2ccc(OCC3(C(F)(F)F)CCC3)n2)nc1N1C[C@@H](C)CC1(C)C [Compound 19, N-(1,3-dimethylpyrazol-4-yl)sulfonyl-6-[3-[[1-(trifluoromethyl)cyclobutyl]methoxy]pyrazol-1-yl]-2-[(4S)-2,2,4-trimethylpyrrolidin-1-yl]pyridine-3-carboxamide] | 90 nM | 8.8 ×10⁻⁶ cm/s | 1% | 

Other lines, results leading:

Row | EC50 [1] | Papp A→B [2] | CYP3A4 Induction-PXR human PXR internal Max % Activity [3] | Hepatocyte clearance-Rat Rat hepatocytes CL pct_unchanged [4] | SMILES
11 | 150 nM | 2.9 ×10⁻⁶ cm/s | 6% | 29% | Cc1nn(C)cc1S(=O)(=O)NC(=O)c1ccc(-n2ccc(O[C@H]3C[C@@H]4CC[C@H]3C4)n2)nc1N1C[C@@H](C)CC1(C)C [Compound 51, N-(1,3-dimethylpyrazol-4-yl)sulfonyl-6-[3-[(1S,2S,4R)-norbornan-2-yl]oxypyrazol-1-yl]-2-[(4S)-2,2,4-trimethylpyrrolidin-1-yl]pyridine-3-carboxamide]
12 | 400 nM | 3.9 ×10⁻⁶ cm/s | 13% | 10% | Cc1nn(C)c(C)c1S(=O)(=O)NC(=O)c1ccc(-n2ccc(OCC3(C(F)(F)F)CC3)n2)nc1N1C[C@@H](C)CC1(C)C [Compound 16, 6-[3-[[1-(trifluoromethyl)cyclopropyl]methoxy]pyrazol-1-yl]-N-(1,3,5-trimethylpyrazol-4-yl)sulfonyl-2-[(4S)-2,2,4-trimethylpyrrolidin-1-yl]pyridine-3-carboxamide]
13 | 210 nM |  | 10% | 19% | C[C@@H]1CN(c2nc(-n3ccc(OCC4CCC4)n3)ccc2C(=O)NS(=O)(=O)c2cccnc2N)C(C)(C)C1 [D, reference compound]
14 | 650 nM | 3.1 ×10⁻⁶ cm/s | 4% |  | CCn1cc(S(=O)(=O)NC(=O)c2ccc(-n3ccc(OCC4(C(F)(F)F)CC4)n3)nc2N2C[C@@H](C)CC2(C)C)cn1 [Compound 7, N-(1-ethylpyrazol-4-yl)sulfonyl-6-[3-[[1-(trifluoromethyl)cyclopropyl]methoxy]pyrazol-1-yl]-2-[(4S)-2,2,4-trimethylpyrrolidin-1-yl]pyridine-3-carboxamide]
